# Experimental data: US20110028686A1, “Protein binding miniature proteins” (Yale University, priority 2000, published 2011)
# Ends that are not written are not given here. Peptide text beside a SMILES is read from it.
# Experiments:
# [1] = target: protein kinase A (Homo sapiens, UniProt P17612); assay: Fluorescence polarization specificity, protein kinase A; type: binding
# Protocol: (§1) FIG. 3—Fluorescence polarization analysis of the affinity of GST-MDM2 for selected peptides and the affinity of pP53-05 for selected proteins. […] Each point represents the average of at least three trials. Error bars represent the standard error. Kd values were calculated as described in Heyduk, et al., Proc Natl Acad Sci USA 1990, 87, 1744. […] Plot illustrates the fraction of p53AD-Flu (10 nM) bound to GST-MDM2 (400 nM) at equilibrium as a function of added pP53-05 (4.5 μM-0.18 μM). Ki was calculated using the Cheng-Prusoff equation.
# (§2) The specificity of pP53-05 was evaluated by measuring its affinity for several receptors and enzymes that bind helical or hydrophobic peptides or small molecules (FIG. 3).
# [2] = Circular dichroism thermal denaturation; type: physicochemical; details: far UV circular dichroism at 222 nm
# Protocol: Spectra were acquired in 0.5×PBS at 25° C. using a Aviv Model 62DS spectrometer. […] Each data set represents the average of 10 scans. Spectra were background corrected but were not smoothed. (b) Temperature dependence of the CD spectrum of pP53-05. ΘMRE is in units of deg·cm^2·dmol^−1.
# Circular dichroism spectra were recorded in PBS on an Aviv 202 CD Spectrometer and were background corrected but not smoothed. Wavelength scans were performed at 4° C. between 200 and 260 nm at 1 nm intervals with a recording time of five seconds at each interval. Bak (72-94), 4099, 4100, 4101, 4102 were used at concentrations of 0.028 mM, 0.0069 mM, 0.0119 mM, 0.014 mM and 0.016 mM respectively. Thermal denaturation curves were measured at 222 nm between 4-98° C. with 2° C. steps and one minute equilibration at each temperature. Peptides were used at the highest concentrations used for the wavelength scans described above. Mean residue elliptcity and percent helicity were calculated from the value at 222 nm after background correction.
# [3] = target: T1, GST-MDM2 (Homo sapiens, UniProt Q00987); assay: Competition fluorescence polarization, p53AD-Flu bound to GST-MDM2; type: binding; details: p53AD-Flu 10 nM, GST-MDM2 400 nM; Cheng-Prusoff
# Protocol: (§3) Each point represents the average of at least three trials. Error bars represent the standard error. Kd values were calculated as described in Heyduk, et al., Proc Natl Acad Sci USA 1990, 87, 1744. […] Ki was calculated using the Cheng-Prusoff equation.
# [4] = target: T1, GST-MDM2; assay: Fluorescence polarization, affinity for GST-MDM2; type: binding; details: fluorescein-labeled peptide; read-out: equilibrium dissociation constant (Kd) of the peptide·GST-MDM2 complex
# Protocol: (§4) Residues in yellow and blue stabilize the aPP hydrophobic core; those in red contribute to the binding of MDM2.
# as §3
# [5] = test system: GST-MDM2; assay: Fluorescence polarization, affinity for GST-MDM2; type: binding, human; details: calmodulin, Fos, carbonic anhydrase, protein kinase A vs GST-MDM2
# Protocol: as §4, §3
# [6] = target: T2, bZIP region of Fos (Homo sapiens, UniProt P01100); assay: Fluorescence polarization specificity, Fos; type: binding
# T2 construct: the bZIP region of Fos, which forms dimeric complexes with other bZIP proteins
# Protocol: as §1, §2
# [7] = target: T3, Calmodulin (Homo sapiens, UniProt P0DP23); assay: Fluorescence polarization specificity, calmodulin; type: binding
# T3 construct: purchased Sigma
# Protocol: as §1, §2
# [8] = target: carbonic anhydrase; assay: Fluorescence polarization specificity, carbonic anhydrase; type: binding
# Protocol: as §1, §2
# [9] = target: KIX; details: various techniques; isothermal titration calorimetry for KID(129-149)^P; read-out: previously reported Kd of KID^P·KIX complexes; cited from earlier work
# Chain of KIX (Q92793 587-673 limits assumed): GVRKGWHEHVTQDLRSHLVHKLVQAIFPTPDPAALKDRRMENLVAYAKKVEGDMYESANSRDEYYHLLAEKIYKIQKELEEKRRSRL
# T1 sequence (Q00987 whole entry): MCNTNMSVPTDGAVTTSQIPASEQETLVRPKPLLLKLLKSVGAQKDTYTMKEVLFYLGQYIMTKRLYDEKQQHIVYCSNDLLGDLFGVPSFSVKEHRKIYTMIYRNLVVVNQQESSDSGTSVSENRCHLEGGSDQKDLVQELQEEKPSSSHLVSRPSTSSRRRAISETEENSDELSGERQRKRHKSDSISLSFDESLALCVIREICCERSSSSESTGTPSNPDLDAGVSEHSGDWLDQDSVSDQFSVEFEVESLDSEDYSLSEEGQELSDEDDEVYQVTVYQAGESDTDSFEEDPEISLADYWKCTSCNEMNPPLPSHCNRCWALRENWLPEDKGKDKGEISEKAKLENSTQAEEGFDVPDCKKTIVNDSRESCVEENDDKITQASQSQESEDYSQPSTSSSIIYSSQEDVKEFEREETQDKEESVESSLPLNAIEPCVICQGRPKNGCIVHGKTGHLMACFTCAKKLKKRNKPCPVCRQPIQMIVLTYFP
# T2 sequence (P01100 137-200 limits assumed): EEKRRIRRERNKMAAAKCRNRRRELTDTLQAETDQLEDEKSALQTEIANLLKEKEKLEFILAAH
Molecule,Kd [1] [µM],"Tm, cooperative thermal melt [2] [°C]",Ki [3] [µM],Kd [4] [µM],ΔΔG between stabilities of non-target protein complexes and pP53-05·GST-MDM2 [5],Kd [6] [µM],Kd [7] [µM],Kd [8] [µM],Kd [9] [µM]
CC[C@H](C)[C@H](NC(=O)[C@H](CC(C)C)NC(=O)[C@H](CC(=O)O)NC(=O)[C@H](CCC(=O)O)NC(=O)[C@@H](NC(=O)[C@@H]1CCCN1C(=O)[C@H](C)NC(=O)[C@H](CC(=O)O)NC(=O)[C@H](CC(=O)O)NC(=O)CNC(=O)[C@@H]1CCCN1C(=O)[C@H](Cc1ccc(O)cc1)NC(=O)[C@@H](NC(=O)[C@@H]1CCCN1C(=O)[C@H](CCC(N)=O)NC(=O)[C@H](CO)NC(=O)[C@@H]1CCCN1C(=O)CN)[C@@H](C)O)C(C)C)C(=O)N[C@@H](CCCNC(=N)N)C(=O)N[C@@H](Cc1ccccc1)C(=O)N[C@@H](CCCCN)C(=O)N[C@@H](Cc1ccccc1)C(=O)N[C@@H](CC(C)C)C(=O)N[C@@H](CC(C)C)C(=O)N[C@@H](CCC(N)=O)C(=O)N[C@@H](Cc1c[nH]c2ccccc12)C(=O)N[C@@H](Cc1ccc(O)cc1)C(=O)N[C@@H](CC(C)C)C(=O)N[C@@H](CC(C)C)C(=O)N[C@@H](C)C(=O)N[C@@H](CC(C)C)C(N)=O [pP53-05] (H-GPSQPTYPGDDAPVEDLIRFKFLLQWYLLAL-NH2; N-terminus and C-terminus assumed),16,47,0.722,0.099 ± 0.011,2.8-4.4 kcal·mol^−1,42,> 275,298,
"KID(129-149)^P: phosphorylated CREB KID residues 129-149, literature (SDAPGVPRIEEEKSEEETSAP; also: phosphorylated, sites not given here; UniProt P16220 129-149, looked up, fragment)",,,,,,,,,80
